Data as given in ChEMBL document CHEMBL1201862, “PubChem BioAssay data set” (2004).
Activity calls are given as the source filed them. No rule for the calls is given here.

Tests used:
Format in all cases: functional
[1] = target: ALK tyrosine kinase receptor (Homo sapiens, UniProt Q9UM73);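 also: ALK tested as one member of a kinase panel screen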
[2] = target: Cell division cycle 7-related protein kinase (Homo sapiens, UniProt O00311);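 also: value obtained from a kinome-wide kinase panel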
[3] = target: Sphingosine 1-phosphate receptor 2 (Homo sapiens, UniProt O95136); assay: Late-stage fluorescence-based dose-response cell-based counterscreen assay to identify agonists of the Sphingosine 1-Phosphate Receptor 3 (S1P3): Sphingosine 1-Phosphate Receptor 2 (S1P2) agonist assay.
[4] = target: T1, Sphingosine 1-phosphate receptor 4 (Homo sapiens, UniProt O95977); assay: Late-stage fluorescence-based dose-response cell-based counterscreen assay to identify agonists of the Sphingosine 1-Phosphate Receptor 3 (S1P3): Sphingosine 1-Phosphate Receptor 4 (S1P4) agonist assay.
T1 sequence (O95977 whole entry): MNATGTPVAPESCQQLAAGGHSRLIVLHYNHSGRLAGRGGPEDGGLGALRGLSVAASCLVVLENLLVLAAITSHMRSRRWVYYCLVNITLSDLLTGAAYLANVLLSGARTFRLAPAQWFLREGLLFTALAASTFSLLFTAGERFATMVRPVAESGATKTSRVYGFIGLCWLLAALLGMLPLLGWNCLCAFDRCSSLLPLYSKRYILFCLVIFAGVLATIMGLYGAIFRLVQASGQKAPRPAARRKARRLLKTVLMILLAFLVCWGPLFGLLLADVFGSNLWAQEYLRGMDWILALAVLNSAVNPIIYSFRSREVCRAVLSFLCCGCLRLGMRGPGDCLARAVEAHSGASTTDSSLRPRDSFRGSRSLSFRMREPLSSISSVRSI

ALK tyrosine kinase receptor, sequence (Q9UM73 whole entry): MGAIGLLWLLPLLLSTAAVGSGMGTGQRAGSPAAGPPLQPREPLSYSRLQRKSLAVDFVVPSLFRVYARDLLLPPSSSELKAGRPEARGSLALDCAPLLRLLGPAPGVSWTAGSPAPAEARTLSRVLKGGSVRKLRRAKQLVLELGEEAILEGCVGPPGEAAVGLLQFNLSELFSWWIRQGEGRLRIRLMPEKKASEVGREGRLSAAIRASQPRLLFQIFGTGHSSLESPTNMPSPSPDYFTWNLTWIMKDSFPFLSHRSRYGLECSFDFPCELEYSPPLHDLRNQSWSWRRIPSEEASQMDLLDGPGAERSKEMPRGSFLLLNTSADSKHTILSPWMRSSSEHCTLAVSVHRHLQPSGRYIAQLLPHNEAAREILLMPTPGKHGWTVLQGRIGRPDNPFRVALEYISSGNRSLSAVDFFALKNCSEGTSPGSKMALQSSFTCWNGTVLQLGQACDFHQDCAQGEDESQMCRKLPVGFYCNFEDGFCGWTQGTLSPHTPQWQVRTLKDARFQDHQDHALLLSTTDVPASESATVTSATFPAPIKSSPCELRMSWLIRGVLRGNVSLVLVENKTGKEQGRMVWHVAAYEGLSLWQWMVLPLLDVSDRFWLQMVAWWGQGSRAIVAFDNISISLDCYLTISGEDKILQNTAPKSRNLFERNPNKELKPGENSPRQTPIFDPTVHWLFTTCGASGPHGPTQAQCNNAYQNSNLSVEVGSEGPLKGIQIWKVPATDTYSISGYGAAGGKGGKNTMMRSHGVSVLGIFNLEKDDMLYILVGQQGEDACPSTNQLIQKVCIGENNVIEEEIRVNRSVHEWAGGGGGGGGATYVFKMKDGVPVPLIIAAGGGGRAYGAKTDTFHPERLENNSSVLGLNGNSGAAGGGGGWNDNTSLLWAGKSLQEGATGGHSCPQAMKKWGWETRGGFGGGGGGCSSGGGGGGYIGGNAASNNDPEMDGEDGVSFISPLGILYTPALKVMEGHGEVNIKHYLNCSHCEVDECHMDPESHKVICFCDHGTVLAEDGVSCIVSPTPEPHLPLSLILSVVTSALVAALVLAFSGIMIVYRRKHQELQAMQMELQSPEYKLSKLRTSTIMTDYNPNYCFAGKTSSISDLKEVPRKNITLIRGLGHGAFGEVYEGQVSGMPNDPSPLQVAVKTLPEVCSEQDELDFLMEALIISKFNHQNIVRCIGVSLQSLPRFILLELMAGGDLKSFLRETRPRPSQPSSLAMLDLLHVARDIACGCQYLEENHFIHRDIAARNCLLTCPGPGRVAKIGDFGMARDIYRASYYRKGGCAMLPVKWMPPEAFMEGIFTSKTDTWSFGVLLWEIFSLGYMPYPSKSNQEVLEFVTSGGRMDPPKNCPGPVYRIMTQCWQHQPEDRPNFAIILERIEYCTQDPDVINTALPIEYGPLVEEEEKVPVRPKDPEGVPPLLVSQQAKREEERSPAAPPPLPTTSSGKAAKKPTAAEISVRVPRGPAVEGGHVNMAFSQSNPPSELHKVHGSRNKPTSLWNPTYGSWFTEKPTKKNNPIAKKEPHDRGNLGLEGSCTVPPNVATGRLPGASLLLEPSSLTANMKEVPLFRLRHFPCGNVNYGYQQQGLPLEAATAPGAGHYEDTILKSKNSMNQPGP
Sphingosine 1-phosphate receptor 2, sequence (O95136 whole entry): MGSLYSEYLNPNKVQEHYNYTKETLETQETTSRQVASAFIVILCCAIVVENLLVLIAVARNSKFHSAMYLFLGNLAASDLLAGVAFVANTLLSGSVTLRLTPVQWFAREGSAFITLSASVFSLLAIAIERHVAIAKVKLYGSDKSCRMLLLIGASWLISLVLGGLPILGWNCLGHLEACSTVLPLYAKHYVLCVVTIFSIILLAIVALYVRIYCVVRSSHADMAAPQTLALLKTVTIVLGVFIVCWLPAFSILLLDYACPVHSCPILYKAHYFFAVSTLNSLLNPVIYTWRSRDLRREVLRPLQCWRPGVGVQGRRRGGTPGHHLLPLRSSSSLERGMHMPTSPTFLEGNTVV
Cell division cycle 7-related protein kinase, sequence (O00311 whole entry): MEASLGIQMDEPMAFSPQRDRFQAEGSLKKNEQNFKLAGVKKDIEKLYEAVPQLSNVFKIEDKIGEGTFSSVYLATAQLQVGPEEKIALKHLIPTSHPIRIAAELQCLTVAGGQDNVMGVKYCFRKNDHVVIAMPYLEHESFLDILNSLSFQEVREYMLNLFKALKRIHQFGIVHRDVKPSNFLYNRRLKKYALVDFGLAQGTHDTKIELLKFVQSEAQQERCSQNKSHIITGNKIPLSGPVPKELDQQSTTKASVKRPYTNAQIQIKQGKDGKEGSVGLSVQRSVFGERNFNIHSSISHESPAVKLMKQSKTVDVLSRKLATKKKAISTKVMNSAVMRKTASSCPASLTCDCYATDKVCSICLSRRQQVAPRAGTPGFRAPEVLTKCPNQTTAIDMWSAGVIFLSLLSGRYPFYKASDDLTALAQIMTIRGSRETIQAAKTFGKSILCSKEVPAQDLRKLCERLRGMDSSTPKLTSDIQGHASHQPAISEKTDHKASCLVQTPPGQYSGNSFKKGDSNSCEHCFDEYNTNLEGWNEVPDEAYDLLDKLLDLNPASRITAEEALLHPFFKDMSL

Row | Ki [1] | Ki [2] | EC50 [3] | EC50 [4] | Compound
1 | 0.316 µM (active) | > 3.98 µM (inactive) |  |  | CS(=O)(=O)c1ccccc1Nc1nc(Nc2ccccc2)ncc1Cl
2 |  |  | > 50 µM (inactive) | > 50 µM (inactive) | Cc1cc(C(=O)N(C2CCCCC2)C2CCCCC2)no1
